The record followed here is article PMC10143232, “Dihydropyrimidone Derivatives as Thymidine Phosphorylase Inhibitors: Inhibition Kinetics, Cytotoxicity, and Molecular Docking” (Molecules, 2023).

Where a name gives a salt, the structure may show the parent alone. Read-outs that look alike come from different tables or passages of the source.

Data set [1] is described as follows: MTT cytotoxicity assay. Format: cell-based. The following applies: 3T3 mouse fibroblast cells, 48 h, test compounds 1 to 30 µM, NC: non-cytotoxic; for viability at 48 h: read-out: Cytotoxicity Studies Cell Viability (%). Here is the method: Cytotoxicity of active compounds were evaluated employing a standard MTT calorimetric assay. Mouse fibroblast (3T3 cell line) acquired from American Type Culture Collection (ATCC), Virginia, USA, was cultured in DMEM (Dulbecco’s modified eagle medium). In total, 5% FBS (fetal bovine serum), penicillin (100 IU/mL), and streptomycin ([…]) were then added to the medium in […] flasks, and kept in a CO2 incubator at 37 °C. The harvested cell was then diluted with a specific medium. Haemocytometer was used for the quantification of cells. After that, the culture of cell having concentration of 5x104 (cells/mL) was prepared, inoculated into 96-well plates (100 µL/well), and then incubated overnight. After incubation, the old medium was removed, and fresh medium (200 µL) was added. Then different concentrations of test compounds (ranging from 1 to 30 µM) were added. After incubation of 48 h, each well received 200 µL of MTT dye (0.5 mg/mL), and further incubated for a duration of 4 h. After 4 h, 100 µL of DMSO was introduced into each well of the 96-well plate. The reduction of MTT to formazan was measured by recording absorbance at 540 nm with the help of a microplate reader (SpectraMax 384, Molecular Devices, San Jose, CA, USA).

Data set [2] addresses T1, Thymidine phosphorylase (TP) (Escherichia coli, UniProt P07650).
T1 construct: purchased Sigma Aldrich, USA
In words: Thymidine phosphorylase inhibition assay (spectrophotometric, 290 nm). The following applies: for IC50 / Thymidine Phosphorylase Inhibitory Activity % Inhibition / TP inhibitory activity (in words): E. coli TP; for IC50: n = 3, NA: not active, read-out: Thymidine Phosphorylase Inhibitory Activity IC50 ± SEM; for inhibition at 500 µM / Thymidine Phosphorylase Inhibitory Activity % Inhibition: test compound 10 µL of 0.5 mM in 200 µL, thymidine substrate, 30 °C, pH 7.0; for TP inhibitory activity (in words): inactive = less than 50% inhibition. The class given is biochemical, E. coli. As to the method:
Thymidine phosphorylase (source: E. coli, EC Number 2.4.2.4), thymidine (substrate), and potassium phosphate monobasic (as buffer) were acquired from Sigma Aldrich, USA. […] Dimethylsulfoxide (DMSO), used as a solvent, was obtained from Fisher Scientific, Schwerte, Germany.
Reaction was performed in 96-well plates and in triplicates. The 200 µL reaction mixture was comprised of 10 µL of the test compound (0.5 mM; dissolved in DMSO), 150 µL of potassium phosphate buffer (pH 7.0, 50 mM), and 20 µL of TP enzyme (0.058 unit/well). The 96-well plate containing all these reagents was then incubated at 30 °C for 10 min.
SoftMax Pro 4.8 software (Molecular Devices, San Jose, CA, USA) was used to analyse the results.
EZ-FIT, enzyme kinetics software (Perrella Scientific, Inc., Amherst, GA, USA) was used to calculate the IC50 values. In order to analyse the kinetic parameter, Grafit version 7.0 (Erithacus Software Ltd., Horley, UK) was used.

Setting [3] is: pH 7, E. coli TP, read-out: Thymidine Phosphorylase Inhibitory Activity % Inhibition.

T1 sequence (P07650 whole entry): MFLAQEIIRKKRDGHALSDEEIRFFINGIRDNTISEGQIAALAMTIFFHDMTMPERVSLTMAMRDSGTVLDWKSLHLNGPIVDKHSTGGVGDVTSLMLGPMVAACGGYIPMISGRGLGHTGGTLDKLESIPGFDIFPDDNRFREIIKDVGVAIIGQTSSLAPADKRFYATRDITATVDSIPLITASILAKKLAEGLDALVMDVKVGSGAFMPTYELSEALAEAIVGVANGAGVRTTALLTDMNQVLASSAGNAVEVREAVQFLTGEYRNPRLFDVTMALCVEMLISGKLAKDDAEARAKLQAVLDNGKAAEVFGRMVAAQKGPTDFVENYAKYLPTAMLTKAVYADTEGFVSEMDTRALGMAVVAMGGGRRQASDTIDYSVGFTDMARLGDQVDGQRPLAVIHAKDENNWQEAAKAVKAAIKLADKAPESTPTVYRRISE

On to `CCOc1ccc(C2NC(=O)NC(C)=C2C(=O)OC)cc1` (centres unmarked) [Compound 2, Methyl 4-(4-ethoxyphenyl)-6-methyl-2-oxo-1,2,3,4-tetrahydropyrimidine-5-carboxylate], for which the viability at 48 h in data set [1] is 67%. Besides, the IC50 in data set [2] was determined as 389 ± 6.2 µM. For the same compound, the inhibition at 500 µM in data set [2] (setting [3]) is 78.2%.
With `COC(=O)C1=C(C)NC(=O)NC1c1ccc2ccccc2c1` (centres unmarked) [Compound 3, Methyl 6-methyl-4-(naphthalen-2-yl)-2-oxo-1,2,3,4-tetrahydropyrimidine-5-carboxylate], in data set [2], the “Thymidine Phosphorylase Inhibitory Activity % Inhibition” value is 38.1%.
With `CCC1NC(=O)NC(C)=C1C(=O)OC` (centres unmarked) [Compound 4, Methyl 4-ethyl-6-methyl-2-oxo-1,2,3,4-tetrahydropyrimidine-5-carboxylate], the inhibition at 500 µM in data set [2] (setting [3]) worked out at 46.8%.
Turning to `COC(=O)C1=C(C)NC(=O)NC1c1ccc(OC)cc1` (centres unmarked) [Compound 5, Methyl 4-(4-methoxyphenyl)-6-methyl-2-oxo-1,2,3,4-tetrahydropyrimidine-5-carboxylate], the viability at 48 h in data set [1] came to 72%. In data set [2], the IC50 amounted to 387.4 ± 2 µM. In addition, the inhibition at 500 µM in data set [2] (setting [3]) was found to be 52.9%.
Regarding `COC(=O)C1=C(C)NC(=O)NC1c1ccccc1Cl` (centres unmarked) [Compound 6, Methyl 4-(2-chlorophenyl)-6-methyl-2-oxo-1,2,3,4-tetrahydropyrimidine-5-carboxylate], the “TP inhibitory activity (in words)” value in data set [2] is “inactive”. In data set [2] (setting [3]), the inhibition at 500 µM was -65.3%.
As for `COC(=O)C1=C(C)NC(=O)NC1c1ccccc1OC` (centres unmarked) [Compound 7, Methyl 4-(2-methoxyphenyl)-6-methyl-2-oxo-1,2,3,4-tetrahydropyrimidine-5-carboxylate], in data set [2] (setting [3]), the inhibition at 500 µM was -19.3%.
With `COC(=O)C1=C(C)NC(=O)NC1c1ccc2ccccc2c1` (centres unmarked) [Compound 8, Methyl 6-methyl-4-(naphthalen-2-yl)-2-oxo-1,2,3,4-tetrahydropyrimidine-5-carboxylate], the “Thymidine Phosphorylase Inhibitory Activity % Inhibition” value in data set [2] was −10.3%.
Consider `COC(=O)C1=C(C)NC(=O)NC1c1ccco1` (centres unmarked) [Compound 9, Methyl 4-(furan-2-yl)-6-methyl-2-oxo-1,2,3,4-tetrahydropyrimidine-5-carboxylate], for which the viability at 48 h in data set [1] amounted to 72%. For the same compound, the IC50 in data set [2] is 373.6 ± 2.2 µM. Moreover, the inhibition at 500 µM in data set [2] (setting [3]) is 78.9%.
Consider `CCCCC1NC(=O)NC(C)=C1C(=O)OC` (centres unmarked) [Compound 10, Methyl 4-butyl-6-methyl-2-oxo-1,2,3,4-tetrahydropyrimidine-5-carboxylate], for which, in data set [1], the viability at 48 h amounted to 66%. In addition, in data set [2], the IC50 was 389 ± 0.6 µM. The inhibition at 500 µM in data set [2] (setting [3]) worked out at 92.7%.
For the compound `COC(=O)C1=C(C)NC(=O)NC1c1ccc(C)o1` (centres unmarked) [Compound 11, Methyl 6-methyl-4-(5-methylfuran-2-yl)-2-oxo-1,2,3,4-tetrahydropyrimidine-5-carboxylate], in data set [1], the viability at 48 h amounted to 77%. The IC50 in data set [2] stood at 386 ± 0.6 µM. Besides, in data set [2] (setting [3]), the inhibition at 500 µM is 76.9%.
On the same counts, the results for `COC(=O)C1=C(C)NC(=O)NC1c1ccc(O)cc1` (centres unmarked) [Compound 13, Methyl 4-(4-hydroxyphenyl)-6-methyl-2-oxo-1,2,3,4-tetrahydropyrimidine-5-carboxylate] are 72%, 448.9 ± 4.1 µM and 56.2%.
On the same counts, the results for `COC(=O)C1=C(C)NC(=O)NC1c1ccc(OC)cc1F` (centres unmarked) [Compound 14, Methyl 4-(2-fluoro-4-methoxyphenyl)-6-methyl-2-oxo-1,2,3,4-tetrahydropyrimidine-5-carboxylate] are 71%, 397.1 ± 0.1 µM and 68.4%.
As for `COC(=O)C1=C(C)NC(=O)NC1c1cccc(O)c1` (centres unmarked) [Compound 15, Methyl 4-(3-hydroxyphenyl)-6-methyl-2-oxo-1,2,3,4-tetrahydropyrimidine-5-carboxylate], the inhibition at 500 µM in data set [2] (setting [3]) came out at 38.9%.
Still for that read-out and setting: the figure for `COC(=O)C1=C(C)NC(=O)NC1c1ccc(F)c(OC)c1` (centres unmarked) [Compound 16, Methyl 4-(4-fluoro-3-methoxyphenyl)-6-methyl-2-oxo-1,2,3,4-tetrahydropyrimidine-5-carboxylate] is 47.8%; for `COC(=O)C1=C(C)NC(=O)NC1c1cc(OC)ccc1OC` (centres unmarked) [Compound 17, Methyl 4-(2,5-dimethoxyphenyl)-6-methyl-2-oxo-1,2,3,4-tetrahydropyrimidine-5-carboxylate] it is 46.5%.
On to `COC(=O)C1=C(C)NC(=O)NC1c1c(Cl)cccc1Cl` (centres unmarked) [Compound 18, Methyl 4-(2,6-dichlorophenyl)-6-methyl-2-oxo-1,2,3,4-tetrahydropyrimidine-5-carboxylate], for which the “TP inhibitory activity (in words)” value in data set [2] was “inactive”. Also, the inhibition at 500 µM in data set [2] (setting [3]) was -15.4%.
For the compound `COC(=O)C1=C(C)NC(=O)NC1c1ccc(C(C)C)cc1` (centres unmarked) [Compound 19, Methyl 4-(4-isopropylphenyl)-6-methyl-2-oxo-1,2,3,4-tetrahydropyrimidine-5-carboxylate], in data set [2] (setting [3]), the inhibition at 500 µM is -18.5%.
With `COC(=O)C1=C(C)NC(=O)NC1c1cccc(OC)c1OC` (centres unmarked) [Compound 20, Methyl 4-(2,3-dimethoxyphenyl)-6-methyl-2-oxo-1,2,3,4-tetrahydropyrimidine-5-carboxylate], the viability at 48 h in data set [1] was 62%. Further, in data set [2], the IC50 turned out to be 414.7 ± 1.6 µM. In addition, the inhibition at 500 µM in data set [2] (setting [3]) turned out to be 67.8%.
On to `COC(=O)C1=C(C)NC(=O)NC1CC(C)C` (centres unmarked) [Compound 21, Methyl 4-isobutyl-6-methyl-2-oxo-1,2,3,4-tetrahydropyrimidine-5-carboxylate], for which the viability at 48 h in data set [1] is 55%. Also, in data set [2], the IC50 came out at 345.4 ± 0.5 µM. The inhibition at 500 µM in data set [2] (setting [3]) amounted to 90.7%.
As to `COC(=O)C1=C(C)NC(=O)NC1c1cc(Br)c(OC)c(OC)c1` (centres unmarked) [Compound 22, Methyl 4-(3-bromo-4,5-dimethoxyphenyl)-6-methyl-2-oxo-1,2,3,4-tetrahydropyrimidine-5-carboxylate], in data set [1], the viability at 48 h was found to be 76%. Besides, the IC50 in data set [2] came to 394 ± 4.3 µM. The inhibition at 500 µM in data set [2] (setting [3]) was found to be 61.9%.
For the compound `COC(=O)C1=C(C)NC(=O)NC1c1ccc(OC)c(OCc2ccccc2)c1` (centres unmarked) [Compound 23, Methyl 4-(3-(benzyloxy)-4-methoxyphenyl)-6-methyl-2-oxo-1,2,3,4-tetrahydropyrimidine-5-carboxylate], in data set [2] (setting [3]), the inhibition at 500 µM turned out to be 7.5%.
The same measure, in the same setting: the same measure for `COC(=O)C1=C(C)NC(=O)NC1c1cccs1` (centres unmarked) [Compound 27, Methyl 6-methyl-2-oxo-4-(thiophen-2-yl)-1,2,3,4-tetrahydropyrimidine-5-carboxylate]: 47.1%; for `COC(=O)C1=C(C)NC(=O)NC1c1cccc(OCc2ccccc2)c1` (centres unmarked) [Compound 31, Methyl 4-(3-(benzyloxy)phenyl)-6-methyl-2-oxo-1,2,3,4-tetrahydropyrimidine-5-carboxylate]: -41.9%.
On to `COC(=O)C1=C(C)NC(=O)NC1c1ccccc1F` (centres unmarked) [Compound 35, Methyl 4-(2-fluorophenyl)-6-methyl-2-oxo-1,2,3,4-tetrahydropyrimidine-5-carboxylate], for which, in data set [2], the “TP inhibitory activity (in words)” value is “activity was lost”. The inhibition at 500 µM in data set [2] (setting [3]) amounted to 9.6%.
`COC(=O)C1=C(C)NC(=O)NC1c1ccccc1OCc1ccccc1` (centres unmarked) [Compound 36, Methyl 4-(2-(benzyloxy)phenyl)-6-methyl-2-oxo-1,2,3,4-tetrahydropyrimidine-5-carboxylate]: the inhibition at 500 µM in data set [2] (setting [3]) is 5.3%.
Take `COC(=O)C1=C(C)NC(=O)NC1c1ccc(Cl)cc1Cl` (centres unmarked) [Compound 39, Methyl 4-(2,4-dichlorophenyl)-6-methyl-2-oxo-1,2,3,4-tetrahydropyrimidine-5-carboxylate]: the “TP inhibitory activity (in words)” value in data set [2] was “inactive”. Also, the inhibition at 500 µM in data set [2] (setting [3]) is -1.8%.
Regarding `C[C@@H]1C[C@@H]([C@H](O)CC2CC(=O)NC(=O)C2)C(=O)[C@@H](C)C1` [Cycloheximide, reference compound], in data set [1], the viability at 48 h came to 30%. Also, the concentration for half-maximal inhibition (IC50) at 48 h in data set [1] (read-out: Cytotoxicity Studies IC50 ± SD) is 0.8 ± 0.2 µM.
Consider `N=C1CCCN1Cc1[nH]c(=O)[nH]c(=O)c1Cl` [Tipiracil-HCl, reference compound], for which, in data set [2] (pH 7, read-out: Thymidine Phosphorylase Inhibitory Activity % Inhibition, E. coli TP), the inhibition at 500 µM was 92%.
